# Values quoted from earlier work as cited in patent US20080085892A1, “Liquid dosage form of acetaminophen” (priority 2006, published 2008).
smiles,measurement,value
"COc1ccccc1OCC(O)CO (centres unmarked) [Guaifenesin, 3-(2-methoxyphenoxy)-1,2-propanediol]",solubility in water,about 5 % wt.
same,solubility in water (in words),slightly soluble
